According to the supplement of paper PMC10307832:

Tests used:
Test in all cases: relative viability (nuclei count vs DMSO), 5 days (fraction); higher = more cells survive
Trametinib + OSI-027 = compound: CC(=O)Nc1cccc(-n2c(=O)n(C3CC3)c(=O)c3c(Nc4ccc(I)cc4F)n(C)c(=O)c(C)c32)c1 [Trametinib] + COc1cccc2cc(-c3nc([C@H]4CC[C@H](C(=O)O)CC4)n4ncnc(N)c34)[nH]c12 [OSI-027] (partner 0.5 µM)
In short: (§1)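 One day after seeding in 1536-well plates, lung cancer cell lines were dosed by pin tool. Dosing was either single-drug or a fixed anchor-drug dose plus five library-drug doses (not always all listed) in √10 steps. After 5 days, nuclei were stained in one fix-and-stain step and counted on 4× images, and relative viability is the nuclei count of treated wells over that of vehicle wells, given as the median of duplicate plates.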

[1] = compound: CN1C=C(C2=CC=CC=C21)/C=C\3/C4=C(C=CC=N4)NC3=O + Cc1nc(NC(=O)N2CCC[C@H]2C(N)=O)sc1-c1ccnc(C(C)(C)C(F)(F)F)c1 [Alpelisib] (partner 2 µM)
In short: as §1

Trametinib + Linsitinib = compound: CC(=O)Nc1cccc(-n2c(=O)n(C3CC3)c(=O)c3c(Nc4ccc(I)cc4F)n(C)c(=O)c(C)c32)c1 [Trametinib] + C[C@]1(O)C[C@@H](c2nc(-c3ccc4ccc(-c5ccccc5)nc4c3)c3c(N)nccn32)C1 [Linsitinib] (partner 1 µM)
In short: as §1

Trametinib + Olaparib = compound: CC(=O)Nc1cccc(-n2c(=O)n(C3CC3)c(=O)c3c(Nc4ccc(I)cc4F)n(C)c(=O)c(C)c32)c1 [Trametinib] + O=C(c1cc(Cc2n[nH]c(=O)c3ccccc23)ccc1F)N1CCN(C(=O)C2CC2)CC1 [Olaparib] (partner 8 µM)
In short: as §1

| Cell Line | relative viability (Trametinib + OSI-027; first compound 0.0025 µM) | relative viability (Trametinib + OSI-027; first compound 0.007906 µM) | relative viability (Trametinib + OSI-027; first compound 0.025 µM) | relative viability (Trametinib + OSI-027; first compound 0.07906 µM) | relative viability (Trametinib + OSI-027; first compound 0.25 µM) | relative viability ([1]; first compound 0.02 µM) | relative viability ([1]; first compound 0.06325 µM) | relative viability ([1]; first compound 0.2 µM) | relative viability ([1]; first compound 0.6325 µM) | relative viability ([1]; first compound 2 µM) | relative viability (Trametinib + Linsitinib; first compound 0.0025 µM) | relative viability (Trametinib + Linsitinib; first compound 0.007906 µM) | relative viability (Trametinib + Linsitinib; first compound 0.025 µM) | relative viability (Trametinib + Linsitinib; first compound 0.07906 µM) | relative viability (Trametinib + Linsitinib; first compound 0.25 µM) | relative viability (Trametinib + Olaparib; first compound 0.0025 µM) | relative viability (Trametinib + Olaparib; first compound 0.007906 µM) | relative viability (Trametinib + Olaparib; first compound 0.025 µM) | relative viability (Trametinib + Olaparib; first compound 0.07906 µM) | relative viability (Trametinib + Olaparib; first compound 0.25 µM) |
| --- | --- | --- | --- | --- | --- | --- | --- | --- | --- | --- | --- | --- | --- | --- | --- | --- | --- | --- | --- | --- |
| HCC-44 | 0.487 | 0.249 | 0.424 | 0.311 | 0.183 | 0.737 | 0.74 | 0.722 | 0.564 | 0.705 | 0.734 | 0.592 | 0.334 | 0.43 | 0.321 | 0.96 | 1.06 | 1.08 | 0.897 | 0.87 |
| HCC-78 | 0.366 | 0.361 | 0.313 | 0.343 | 0.333 | 0.289 | 0.509 | 0.304 | 0.282 | 0.287 | 0.543 | 0.323 | 0.314 | 0.354 | 0.36 | 0.774 | 0.642 | 0.82 | 0.808 | 0.557 |
| HCC-366 | 0.684 | 0.763 | 0.371 | 0.414 | 0.201 | 0.296 | 0.328 | 0.284 | 0.31 | 0.267 | 0.538 | 0.288 | 0.196 | 0.133 | 0.116 | 0.294 | 0.293 | 0.206 | 0.145 | 0.0982 |
| HCC-827 | 0.702 | 0.671 | 0.529 | 0.392 | 0.429 | 0.969 | 0.992 | – | 0.978 | 0.984 | 0.958 | 0.893 | 0.944 | 0.886 | 0.753 | 0.612 | 0.571 | 0.563 | 0.507 | 0.337 |
| HOP-62 | 0.879 | 0.873 | 0.493 | 0.219 | 0.188 | 0.821 | 0.843 | 0.957 | 0.926 | 1.07 | 1.06 | 0.921 | 0.705 | 0.487 | 0.152 | 0.395 | 0.377 | 0.417 | 0.376 | 0.125 |
| IA-LM | – | – | – | – | – | 0.972 | 0.549 | 0.906 | 0.736 | 0.681 | 0.574 | 0.553 | 0.142 | 0.218 | 0.145 | 0.826 | 0.74 | 0.244 | 0.242 | 0.167 |
| LC-2-ad | 0.853 | 0.57 | 0.513 | 0.516 | 0.416 | 0.93 | 0.891 | 0.859 | 0.892 | 0.891 | 0.871 | 0.716 | 0.729 | 0.502 | 0.381 | 0.683 | 0.663 | 0.706 | 0.695 | 0.604 |
| LCLC-97TM1 | 0.346 | 0.379 | 0.268 | 0.272 | 0.271 | 0.205 | – | – | 0.208 | 0.202 | 0.185 | 0.195 | 0.147 | 0.133 | 0.119 | 0.304 | 0.41 | 0.254 | 0.188 | 0.0956 |
| LCLC-103H | 0.463 | 0.44 | 0.379 | 0.334 | 0.421 | 1.05 | 1.02 | 0.937 | 0.941 | 0.924 | 0.968 | 0.897 | 0.746 | 0.904 | 0.933 | 0.723 | 0.638 | 0.655 | 0.593 | 0.581 |
| LK-2 | 0.197 | 0.205 | 0.164 | 0.18 | 0.186 | – | 0.766 | 0.76 | 0.943 | 0.61 | 0.553 | 0.44 | 0.604 | 0.304 | 0.469 | 0.654 | 0.619 | 0.81 | 0.51 | 0.293 |
| LOU-NH91 | 0.735 | 0.654 | 0.568 | 0.53 | 0.478 | 0.658 | 0.698 | 0.598 | 0.698 | 0.69 | 0.864 | 0.801 | 0.771 | 0.735 | 0.526 | 0.893 | 0.829 | 0.849 | 0.809 | 0.483 |
| NCI-H522 | 0.592 | 0.653 | 0.595 | 1.57 | 0.587 | – | – | – | – | – | – | – | – | – | – | 0.617 | 0.485 | 0.583 | 0.555 | 0.545 |
| NCI-H1299 | – | – | – | – | – | 1.06 | 1.14 | 1.14 | 1.1 | 1.06 | 0.955 | 0.953 | 0.9 | 0.726 | 0.386 | 1.04 | 1 | 0.942 | 0.832 | 0.587 |
| NCI-H1563 | 0.745 | 0.819 | 0.772 | 0.884 | 0.623 | 0.898 | 0.951 | 0.73 | 0.977 | 0.863 | 1.22 | 1.08 | 1.1 | 1.12 | 0.808 | – | – | – | – | – |
| NCI-H1623 | 0.361 | 0.35 | 0.326 | 0.28 | 0.311 | – | – | – | – | – | – | – | – | – | – | – | – | – | – | – |
| NCI-H1648 | – | 0.28 | 0.273 | 0.279 | 0.272 | – | – | – | – | – | – | – | – | – | – | 0.828 | 0.671 | 0.88 | 0.653 | 0.555 |
| NCI-H1650 | 0.632 | 0.604 | 0.534 | 0.451 | 0.204 | – | – | – | – | – | – | – | – | – | – | 0.852 | 0.735 | 0.638 | 0.568 | 0.332 |
| NCI-H1703 | – | – | – | – | – | 0.436 | 0.299 | 0.324 | 0.41 | 0.268 | 0.692 | 0.821 | 0.674 | 0.72 | 0.352 | 0.492 | 0.513 | 0.323 | 0.385 | 0.274 |
| NCI-H2170 | 0.754 | 0.659 | 0.392 | 0.613 | 0.616 | – | 0.794 | 0.757 | 0.617 | 0.649 | – | – | – | – | – | 0.654 | 0.609 | – | 0.548 | 0.52 |
| NCI-H2342 | 0.56 | 0.552 | – | 0.471 | 0.577 | – | – | – | – | – | – | – | – | – | – | 0.404 | 0.4 | 0.327 | 0.359 | 0.399 |
| SW 900 | 0.629 | 0.539 | 0.424 | 0.428 | 0.167 | – | – | – | – | – | – | – | – | – | – | 0.838 | 0.782 | 0.669 | 0.809 | 0.518 |
